For 15 compounds, IC50 results are on record in US20060205673A1, “2-Amino-3-hydroxy-4-tert-leucyl-amino-5-phenyl-pentanoic acid amide derivatives” (priority 2000, published 2006).

In this test the target is T1, purified human placenta 20S proteasome (Homo sapiens, UniProt P28074).
T1 construct: 1 μl purified human placenta 20S proteasome; tissue Diabetes Forschungsinstitut, Düsseldorf, Germany; host or cells: human placenta
The test can be described thus: Inhibition of the chymotrypsin-like activity of the 20S proteasome (Suc-LLVY-AMC hydrolysis). It counts as biochemical. Conditions: Suc-LLVY-AMC substrate, 60 min preincubation at room temperature, Table 1. The source says:
It is based on the hydrolysis of the fluorogenic peptide Suc-LLVY-AMC (Succinyl-leucine-leucine-valine-tyrosine-7-amino-4-methyl-coumarin), which is cleaved exclusively at the Y-AMC bond by the 20S proteasome. Hydrolysis of this peptide is accompanied by an increase in fluorescence intensity [λex (excitation wavelength): 355 nm; λem (emission wavelength): 460 nm] due to release of the internally quenched […] fluorescence that accompanies diffusion apart of the hydrolysis product Suc-LLVY.
2 μl of a 1 mM solution of a test compound in DMSO (dimethylsulfoxide, 20 μM final concentration in the well) are preincubated for 60 min at room temperature in black 96-well microtiter plates together with a mixture of 1 μl purified human placenta 20S proteasome (Diabetes Forschungsinstitut, Düsseldorf, Germany; about 100 ng proteasome, depending on the proteasome preparation) and 47 μl buffer-Ca [5 mM CaCl2, 20 mM Tris/HCl (Tris-(hydroxymethyl)-amino-methane hydrochloride) pH 8.0]. 3 μl of a 2.67 mM solution of Suc-LLVY-AMC (Bachem, Switzerland) in DMSO (80 μM final concentration in the well) and 47 μl buffer-Ca are mixed and added. The resulting mixture is incubated for 3-24 h at 37° C. If desired, proteolysis of the substrate can be stopped by addition of 50 μl stop solution (100 mM monochloroacetic acid, 130 mM NaOH, 100 mM acetic acid, pH=4.3). The fluorescence is monitored with a FLUOROSKAN ASCENT™ microtiter plate reader.
To each measure series two control experiments have to be carried out:
1.) 0% value: 2 μl DMSO are used in the above described assay instead of 2 μl of a 1 mM solution of a test compound in DMSO and 48 μl buffer-Ca instead of a mixture of 47 μl buffer-Ca and 1 μl purified proteasome.
2.) 100% value: in the above described assay 2 μl DMSO are used instead of 2 μl of a 1 mM solution of the test compound in DMSO.
The IC50 value is defined as that concentration of a compound at which the remaining activity is 50%.

In the case of `COc1ccc(CNC(=O)[C@@H](NC(=O)[C@H](NCc2cccc3ccccc23)[C@H](O)[C@H](Cc2ccccc2)NC(=O)[C@@H](NC(=O)OCc2ccccc2)C(C)(C)C)C(C)C)c(O)c1` [Example 1, ((S)-1-{(1S,2R,3R)-1-Benzyl-2-hydroxy-3-[(S)-1-(2-hydroxy-4-methoxy-benzylcarbamoyl)-2-methyl-propylcarbamoyl]-3-[(naphthalen-1-ylmethyl)-amino]-propylcarbamoyl}-2,2-dimethyl-propyl)-carbamic acid benzyl ester], the midpoint of inhibition, the IC50, lay at 260 nM.
As to `COc1ccc(CNC(=O)[C@@H](NC(=O)[C@H](NCc2ccc(N(C)C)cc2)[C@H](O)[C@H](Cc2ccccc2)NC(=O)[C@@H](NC(=O)OCc2ccccc2)C(C)(C)C)C(C)C)c(O)c1` [Example 2, ((S)-1-{(1S,2R,3R)-1-Benzyl-3-(4-dimethylamino-benzylamino)-2-hydroxy-3-[(S)-1-(2-hydroxy-4-methoxy-benzylcarbamoyl)-2-methyl-propylcarbamoyl]-propylcarbamoyl}-2,2-dimethyl-propyl)-carbamic acid benzyl ester], the IC50 came out at 600 nM.
To `COc1ccc(CN[C@@H](C(=O)N[C@H](C(=O)NCc2cc(Br)ccc2O)C(C)C)[C@H](O)[C@H](Cc2ccccc2)NC(=O)[C@@H](NC(=O)OCc2ccccc2)C(C)(C)C)cc1` [Example 3, {(S)-1-[(1S,2R,3R)-1-Benzyl-3-[(S)-1-(5-bromo-2-hydroxy-benzyl-carbamoyl)-2-methyl-propylcarbamoyl]-2-hydroxy-3-(4-methoxy-benzylamino)-propylcarbamoyl]-2,2-dimethyl-propyl}-carbamic acid benzyl ester] belongs 800 nM; to `COc1cccc(CN[C@@H](C(=O)N[C@H](C(=O)NCc2ccc(OC)cc2O)C(C)C)[C@H](O)[C@H](Cc2ccccc2)NC(=O)[C@@H](NC(=O)OCc2ccccc2)C(C)(C)C)c1` [Example 4, {(S)-1-[(1S,2R,3R)-1-Benzyl-2-hydroxy-3-[(S)-1-(2-hydroxy-4-methoxy-benzylcarbamoyl)-2-methyl-propylcarbamoyl]-3-(3-methoxy-benzylamino)-propylcarbamoyl]-2,2-dimethyl-propyl}-carbamic acid benzyl ester], 1500 nM.
`COc1ccc(CNC(=O)[C@@H](NC(=O)[C@H](NCc2ccc(OC)cc2OC)[C@H](O)[C@H](Cc2ccccc2)NC(=O)[C@@H](NC(=O)OCc2ccccc2)C(C)(C)C)C(C)C)c(O)c1` [Example 5, ((S)-1-{(1S,2R,3R)-1-Benzyl-3-(2,4-dimethoxy-benzylamino)-2-hydroxy-3-[(S)-1-(2-hydroxy-4-methoxy-benzylcarbamoyl)-2-methyl-propylcarbamoyl]-propylcarbamoyl}-2,2-dimethyl-propyl)-carbamic acid benzyl ester] displayed an IC50 of 1600 nM.
The compound `COc1ccc(CNC(=O)[C@@H](NC(=O)[C@H](NCc2cc(OC)c(OC)c(OC)c2)[C@H](O)[C@H](Cc2ccccc2)NC(=O)[C@@H](NC(=O)OCc2ccccc2)C(C)(C)C)C(C)C)c(O)c1` [Example 6, {(S)-1-[(1S,2R,3R)-1-Benzyl-2-hydroxy-3-[(S)-1-(2-hydroxy-4-methoxy-benzylcarbamoyl)-2-methyl-propylcarbamoyl]-3-(3,4,5-trimethoxy-benzylamino)-propylcarbamoyl]-2,2-dimethyl-propyl}-carbamic acid benzyl ester] gave an IC50 of 50 nM.
For `COc1ccc(CNC(=O)[C@@H](NC(=O)[C@H](NCc2ccc(OC)c(OC)c2OC)[C@H](O)[C@H](Cc2ccccc2)NC(=O)[C@@H](NC(=O)OCc2ccccc2)C(C)(C)C)C(C)C)c(O)c1` [Example 7, {(S)-1-[(1S,2R,3R)-1-Benzyl-2-hydroxy-3-[(S)-1-(2-hydroxy-4-methoxy-benzylcarbamoyl)-2-methyl-propylcarbamoyl]-3-(2,3,4-trimethoxy-benzylamino) -propylcarbamoyl]-2,2-dimethyl-propyl}-carbamic acid benzyl ester], the IC50 turned out to be 100 nM.
`COc1ccc(CNC(=O)[C@@H](NC(=O)[C@H](NCc2ccc(OC)c(OC)c2)[C@H](O)[C@H](Cc2ccccc2)NC(=O)[C@@H](NC(=O)OCc2ccccc2)C(C)(C)C)C(C)C)c(O)c1` [Example 8, ((S)-1-{(1S,2R,3R)-1-Benzyl-3-(3,4-dimethoxy-benzylamino)-2-hydroxy-3-[(S)-1-(2-hydroxy-4-methoxy-benzylcarbamoyl)-2-methyl-propylcarbamoyl]-propylcarbamoyl}-2,2-dimethyl-propyl)-carbamic acid benzyl ester] returned an IC50 of 150 nM.
To `COc1cc(CN[C@@H](C(=O)N[C@H](C(=O)NCc2ccc(OC)cc2O)C(C)C)[C@H](O)[C@H](Cc2ccccc2)NC(=O)[C@@H](NC(=O)OCc2ccccc2)C(C)(C)C)cc(OC)c1` [Example 9, ((S)-1-{(1S,2R,3R)-1-Benzyl-3-(3,5-dimethoxy-benzylamino)-2-hydroxy-3[(S)-1-(2-hydroxy-4-methoxy-benzylcarbamoyl)-2-methyl-propylcarbamoyl]-propylcarbamoyl}-2,2-dimethyl-propyl)-carbamic acid benzyl ester] belongs 190 nM; to `COc1ccc(CNC(=O)[C@@H](NC(=O)[C@H](NCc2cc(OC)c(OC)cc2OC)[C@H](O)[C@H](Cc2ccccc2)NC(=O)[C@@H](NC(=O)OCc2ccccc2)C(C)(C)C)C(C)C)c(O)c1` [Example 10, {(S)-1-[(1S,2R,3R)-1-Benzyl-2-hydroxy-3-[(S)-1-(2-hydroxy-4-methoxy-benzylcarbamoyl)-2-methyl-propylcarbamoyl]-3-(2,4,5-trimethoxy-benzylamino)-propylcarbamoyl]-2,2-dimethyl-propyl}-carbamic acid benzyl ester], 200 nM; to `COc1ccc(CNC(=O)[C@@H](NC(=O)[C@H](NCc2cc(OC)c(OC)c(OC)c2)[C@H](O)[C@H](Cc2ccccc2)NC(=O)[C@@H](NC(=O)OC(C)(C)C)C(C)(C)C)C(C)C)c(O)c1` [Example 11, {(S)-1-[(1S,2R,3R)-1-Benzyl-2-hydroxy-3-[(S)-1-(2-hydroxy-4-methoxy-benzylcarbamoyl)-2-methyl-propylcarbamoyl]-3-(3,4,5-trimethoxy-benzylamino)-propylcarbamoyl]-2,2-dimethyl-propyl}-carbamic acid tert-butyl ester], 1040 nM.
`COc1ccc(CNC(=O)[C@@H](NC(=O)[C@H](NCc2cc(OC)c(OC)c(OC)c2)[C@H](O)[C@H](Cc2ccccc2)NC(=O)[C@@H](NC(=O)Cc2cccc3ccccc23)C(C)(C)C)C(C)C)c(O)c1` [Example 12, (2R,3R,4S)-4-[(S)-3,3-Dimethyl-2-(2-naphthalen-1-yl-acetylamino)-butyrylamino]-3-hydroxy-5-phenyl-2-(3,4,5-trimethoxy-benzylamino)-pentanoic acid [(S)-1-(2-hydroxy-4-methoxy-benzylcarbamoyl)-2-methyl-propyl]-amide]: the IC50 was determined as 11 nM.
In the case of `COc1ccc(CNC(=O)[C@@H](NC(=O)[C@H](NCc2ccc(OC)c(OC)c2OC)[C@H](O)[C@H](Cc2ccccc2)NC(=O)[C@@H](NC(=O)Cc2cccc3ccccc23)C(C)(C)C)C(C)C)c(O)c1` [Example 13, (2R,3R,4S)-4-[(S)-3,3-Dimethyl-2-(2-naphthalen-1-yl-acetylamino)-butyrylamino]-3-hydroxy-5-phenyl-2-(2,3,4-trimethoxy-benzylamino)-pentanoic acid [(S)-1-(2-hydroxy-4-methoxy-benzylcarbamoyl)-2-methyl-propyl]-amide] it was 18 nM.
Compound `COc1ccc(CNC(=O)[C@@H](NC(=O)[C@H](NCc2cc(OC)c(OC)cc2OC)[C@H](O)[C@H](Cc2ccccc2)NC(=O)[C@@H](NC(=O)Cc2cccc3ccccc23)C(C)(C)C)C(C)C)c(O)c1` [Example 14, (2R,3R,4S)-4-[(S)-3,3-Dimethyl-2-(2-naphthalen-1-yl-acetylamino)-butyrylamino]-3-hydroxy-5-phenyl-2-(2,4,5-trimethoxy-benzylamino)-pentanoic acid [(S)-1-(2-hydroxy-4-methoxy-benzylcarbamoyl)-2-methyl-propyl]-amide] registered an IC50 of 29 nM.
`COc1ccc(CNC(=O)[C@@H](NC(=O)[C@H](NCc2cccc3ccccc23)[C@H](O)[C@H](Cc2ccccc2)NC(=O)[C@@H](NC(=O)Cc2cccc3ccccc23)C(C)(C)C)C(C)C)c(O)c1` [Example 15, (2R,3R,4S)-4-[(S)-3,3-Dimethyl-2-(2-naphthalen-1-yl-acetylamino)-butyrylamino]-3-hydroxy-2-[(naphthalen-1-ylmethyl)-amino]-5-phenyl-pentanoic acid [(S)-1-(2-hydroxy-4-methoxy-benzylcarbamoyl)-2-methyl-propyl]-amide] came in with an IC50 of 150 nM.

Broadly, the IC50 is the concentration that inhibits the measured activity by half.
